# From PMC7192623, “Regulation of the RNA and DNA nuclease activities required for Pyrococcus furiosus Type III-B CRISPR–Cas immunity” (Nucleic Acids Research, 2020)
# What was measured:
# Pfu Csx1 [1] = molecular target: T1, Pfu Csx1 (Pyrococcus furiosus, UniProt Q8U1S8); assay: RNase activation assay, […]'-32P-labelled target RNA, urea-PAGE; assay type: biochemical; conditions: allosteric activator via CARF domain; synthetic cA4 at 1.85, 18.5 and 185 pM; 20 nM Csx1; 20 mM Tris-HCl pH 7.5, 200 mM NaCl, 70 °C
# T1 construct: gene PF1127; full-length, N-terminal 6x-His tag, modified pET24-D, expressed in E. coli BL21-RIPL (DE3)
# T1 sequence (Q8U1S8 1-478): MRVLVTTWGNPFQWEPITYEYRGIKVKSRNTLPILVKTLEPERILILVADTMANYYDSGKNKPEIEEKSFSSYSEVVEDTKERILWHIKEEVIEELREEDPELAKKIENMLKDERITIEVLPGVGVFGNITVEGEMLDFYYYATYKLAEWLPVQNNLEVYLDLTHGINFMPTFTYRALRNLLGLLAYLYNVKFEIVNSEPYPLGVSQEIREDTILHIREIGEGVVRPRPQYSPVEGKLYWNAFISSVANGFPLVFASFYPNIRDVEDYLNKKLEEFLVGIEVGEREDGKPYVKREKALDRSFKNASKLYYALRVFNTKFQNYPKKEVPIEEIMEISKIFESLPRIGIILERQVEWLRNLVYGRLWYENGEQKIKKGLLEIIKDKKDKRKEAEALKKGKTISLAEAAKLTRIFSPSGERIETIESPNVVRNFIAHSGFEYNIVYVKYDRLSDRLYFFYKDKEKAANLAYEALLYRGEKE
# Pfu Csx1 [2] = molecular target: T1, Pfu Csx1; assay: cleavage of radiolabelled Cmr-produced native cOA, sequencing gel; assay type: biochemical; conditions: HEPN active site; labelled compound; native cOA preparation (mainly cA4, also cA3), product presumed A2>p; 70 °C
smiles,measurement,setting,value
Nc1ncnc2c1ncn2[C@@H]1O[C@@H]2COP(=O)(O)O[C@H]3[C@@H](O)[C@H](n4cnc5c(N)ncnc54)O[C@@H]3COP(=O)(O)O[C@H]3[C@@H](O)[C@H](n4cnc5c(N)ncnc54)O[C@@H]3COP(=O)(O)O[C@H]3[C@@H](O)[C@H](n4cnc5c(N)ncnc54)O[C@@H]3COP(=O)(O)O[C@H]2[C@H]1O [cA4],"RNase activation assay, 5'-32P-labelled target RNA, urea-PAGE",Pfu Csx1 [1],cA4 but not cA6 stimulated the ribonuclease activity of Csx1
same,"cleavage of radiolabelled Cmr-produced native cOA, sequencing gel",Pfu Csx1 [2],also degrades its cognate cyclic-tetra-AMP (cA4) activator to switch off the signaling pathway
